Data published in patent US20070032404A1, “Methods for treating diabetes and related disorders using pde10a inhibitors” (Bayer Pharmaceuticals Corporation, priority 2003, published 2007).

What was measured:
PDE10A = PDE10A (Homo sapiens, UniProt Q9Y233); assay: PDE10A inhibition assay (SPA, 3H-cAMP); format: biochemical; conditions: Table 2
Procedure: (§1) Test compounds and PDE10A enzyme in assay buffer are added to 96-well whitewall/clear bottom isoplates (Wallac). The reaction is initiated by the addition of ^3H-cAMP (Amersham) or ^3H-cGMP (Amersham). Following a 45-minute incubation at room temperature, the reaction is stopped by the addition of SPA yttrium silicate beads (Amersham). The samples are incubated for an additional 30 minutes, and the plates are read in the Microbeta (Wallac) for 30 seconds in the SPA mode. Data may be expressed as a percentage of control. To measure PDE2, PDE3A, PDE4B, and PDE10A activity, 3H-cAMP may be used as a substrate; and to measure PDE5 activity, 3H-cGMP may be used as a substrate.

PDE3A = PDE3A (Homo sapiens, UniProt Q14432); assay: PDE3A inhibition assay (SPA, 3H-cAMP); format: biochemical; conditions: Table 2; read-out: PDE3 IC50
Sequence of PDE3A (Q14432 whole entry, species assumed): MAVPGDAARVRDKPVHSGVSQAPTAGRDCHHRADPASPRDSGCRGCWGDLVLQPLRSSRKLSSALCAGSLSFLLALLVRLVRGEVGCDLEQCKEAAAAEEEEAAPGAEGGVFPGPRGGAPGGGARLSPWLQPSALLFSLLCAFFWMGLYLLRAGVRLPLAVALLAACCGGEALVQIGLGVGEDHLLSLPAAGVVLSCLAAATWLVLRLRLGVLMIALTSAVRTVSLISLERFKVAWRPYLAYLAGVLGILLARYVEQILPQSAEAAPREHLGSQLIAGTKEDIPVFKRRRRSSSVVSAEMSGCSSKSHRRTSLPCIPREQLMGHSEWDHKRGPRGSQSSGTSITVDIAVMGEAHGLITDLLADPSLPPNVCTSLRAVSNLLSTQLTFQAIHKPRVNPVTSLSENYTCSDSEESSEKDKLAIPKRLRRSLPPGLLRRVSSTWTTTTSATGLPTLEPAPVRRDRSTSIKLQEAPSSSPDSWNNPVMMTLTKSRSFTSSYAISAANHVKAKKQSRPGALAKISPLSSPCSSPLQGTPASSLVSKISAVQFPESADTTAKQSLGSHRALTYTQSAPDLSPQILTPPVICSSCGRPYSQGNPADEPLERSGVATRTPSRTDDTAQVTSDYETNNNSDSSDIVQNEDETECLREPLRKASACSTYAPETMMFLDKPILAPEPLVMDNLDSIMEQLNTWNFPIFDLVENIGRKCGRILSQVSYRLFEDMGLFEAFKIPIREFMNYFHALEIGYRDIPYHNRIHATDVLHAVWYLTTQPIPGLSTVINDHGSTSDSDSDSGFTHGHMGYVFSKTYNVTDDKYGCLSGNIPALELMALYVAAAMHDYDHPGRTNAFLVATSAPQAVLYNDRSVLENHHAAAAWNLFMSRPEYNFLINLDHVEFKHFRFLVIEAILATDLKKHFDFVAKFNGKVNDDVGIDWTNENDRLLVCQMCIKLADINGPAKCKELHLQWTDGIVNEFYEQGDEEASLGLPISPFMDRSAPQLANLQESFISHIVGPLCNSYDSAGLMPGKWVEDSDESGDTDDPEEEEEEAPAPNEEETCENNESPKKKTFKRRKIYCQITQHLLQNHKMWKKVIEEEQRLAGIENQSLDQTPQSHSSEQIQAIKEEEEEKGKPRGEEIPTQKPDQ
Procedure: as §1
(§2) These same compounds were run in inhibition assays for PDE2, PDE3A, PDE4B, and PDE5. […] The compounds are therefore selective for PDE10A.

[1] = test system: dispersed pancreatic islets; assay: Dispersed islet assay (insulin secretion); format: cell-based, rat; conditions: 8 mM glucose, 0.3 μM forskolin, 30 minutes; control = 8 mM glucose and 0.3 μM forskolin
Procedure: Dispersed pancreatic islet isolation. Lean rats (male Sprague-Dawley, 200-250 g) are anesthetized with nembutal (60 mg/kg, i.p.) and the abdomen opened to expose the liver and pancreas. The pancreas is distended by injection of Hank's solution into the bile duct, and then the pancreas is excised and minced with scissors while in Hank's solution. After rinsing the tissue with buffer, the pancreas is digested for 10 minutes with collagenase, rinsed, and the islets separated from debris on a Ficoll gradient. The isolated islet fraction is then rinsed with buffer, incubated with EDTA for 8 minutes, followed by incubation with trypsin and DNAase I for an additional 10 minutes. The dispersed islets are transferred to culture media containing 8 mM glucose, seeded in “V-bottom” 96-well plates (2,500 cells per well), and cultured overnight.
For assaying insulinotropic compounds, the dispersed islets are pre-incubated in 3 mM glucose for 30 minutes. The islets are then transferred to media containing 8 mM glucose, test compounds, and 0.3 μM forskolin; and incubated for an additional 30 minutes. The media is then assayed for insulin content using, for example, a SPA assay. Insulin secretion is reported as fold over control (FOC), where the control is the amount of insulin secretion in the presence of 8 mM glucose and 0.3 μM forskolin.

PDE2 = PDE2 (Homo sapiens, UniProt O00408); assay: PDE2 inhibition assay (SPA, 3H-cAMP); format: biochemical; conditions: Table 2
Sequence of PDE2 (O00408 whole entry): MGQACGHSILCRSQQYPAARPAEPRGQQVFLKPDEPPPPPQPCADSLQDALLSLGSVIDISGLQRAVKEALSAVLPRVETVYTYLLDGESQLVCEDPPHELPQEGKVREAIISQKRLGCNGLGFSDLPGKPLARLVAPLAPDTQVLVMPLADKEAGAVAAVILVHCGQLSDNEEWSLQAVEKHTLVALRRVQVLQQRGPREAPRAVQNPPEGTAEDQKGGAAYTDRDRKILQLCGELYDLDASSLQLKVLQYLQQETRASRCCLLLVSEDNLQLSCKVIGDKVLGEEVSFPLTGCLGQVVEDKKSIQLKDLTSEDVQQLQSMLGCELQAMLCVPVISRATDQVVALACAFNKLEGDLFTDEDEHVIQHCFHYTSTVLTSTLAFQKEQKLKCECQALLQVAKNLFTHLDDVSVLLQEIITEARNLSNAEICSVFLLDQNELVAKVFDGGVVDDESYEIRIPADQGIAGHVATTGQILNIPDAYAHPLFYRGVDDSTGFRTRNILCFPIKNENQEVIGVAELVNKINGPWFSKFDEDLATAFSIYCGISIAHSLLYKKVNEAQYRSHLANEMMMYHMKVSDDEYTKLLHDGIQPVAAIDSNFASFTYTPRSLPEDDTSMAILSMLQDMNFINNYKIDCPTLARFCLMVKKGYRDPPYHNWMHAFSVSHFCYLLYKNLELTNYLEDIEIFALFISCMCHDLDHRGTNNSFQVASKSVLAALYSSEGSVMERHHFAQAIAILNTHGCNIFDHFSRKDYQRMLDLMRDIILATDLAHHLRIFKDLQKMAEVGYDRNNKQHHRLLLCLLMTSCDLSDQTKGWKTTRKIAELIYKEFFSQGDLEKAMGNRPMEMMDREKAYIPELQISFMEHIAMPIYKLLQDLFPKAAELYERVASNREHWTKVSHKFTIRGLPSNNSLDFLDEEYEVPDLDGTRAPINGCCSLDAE
Procedure: as §1, §2

PDE5 = PDE5 (Homo sapiens, UniProt O76074); assay: PDE5 inhibition assay (SPA, 3H-cGMP); format: biochemical; conditions: Table 2
Procedure: as §1, §2

PDE4B = PDE4B (Homo sapiens, UniProt Q07343); assay: PDE4B inhibition assay (SPA, 3H-cAMP); format: biochemical; conditions: Table 2
Sequence of PDE4B (Q07343 whole entry, species assumed): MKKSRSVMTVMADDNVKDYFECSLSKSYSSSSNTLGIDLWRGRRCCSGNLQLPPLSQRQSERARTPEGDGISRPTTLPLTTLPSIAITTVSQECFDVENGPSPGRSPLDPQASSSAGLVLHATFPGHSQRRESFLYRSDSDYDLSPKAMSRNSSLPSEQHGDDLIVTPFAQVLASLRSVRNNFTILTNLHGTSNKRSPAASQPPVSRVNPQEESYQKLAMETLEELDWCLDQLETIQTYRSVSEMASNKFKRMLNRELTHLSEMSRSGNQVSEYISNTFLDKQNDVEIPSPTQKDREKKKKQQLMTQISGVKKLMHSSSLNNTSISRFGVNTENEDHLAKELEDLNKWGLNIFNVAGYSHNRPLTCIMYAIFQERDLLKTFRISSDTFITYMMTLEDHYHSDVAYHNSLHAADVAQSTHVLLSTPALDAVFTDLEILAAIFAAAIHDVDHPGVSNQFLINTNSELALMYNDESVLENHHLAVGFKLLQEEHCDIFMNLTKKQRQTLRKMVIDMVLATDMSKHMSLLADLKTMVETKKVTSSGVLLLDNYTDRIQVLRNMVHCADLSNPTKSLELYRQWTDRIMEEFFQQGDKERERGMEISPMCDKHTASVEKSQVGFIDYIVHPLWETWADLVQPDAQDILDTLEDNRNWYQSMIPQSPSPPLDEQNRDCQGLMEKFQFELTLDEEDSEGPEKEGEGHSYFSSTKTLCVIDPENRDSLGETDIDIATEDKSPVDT
Procedure: as §1, §2

Sequence of PDE10A (Q9Y233 whole entry, species assumed): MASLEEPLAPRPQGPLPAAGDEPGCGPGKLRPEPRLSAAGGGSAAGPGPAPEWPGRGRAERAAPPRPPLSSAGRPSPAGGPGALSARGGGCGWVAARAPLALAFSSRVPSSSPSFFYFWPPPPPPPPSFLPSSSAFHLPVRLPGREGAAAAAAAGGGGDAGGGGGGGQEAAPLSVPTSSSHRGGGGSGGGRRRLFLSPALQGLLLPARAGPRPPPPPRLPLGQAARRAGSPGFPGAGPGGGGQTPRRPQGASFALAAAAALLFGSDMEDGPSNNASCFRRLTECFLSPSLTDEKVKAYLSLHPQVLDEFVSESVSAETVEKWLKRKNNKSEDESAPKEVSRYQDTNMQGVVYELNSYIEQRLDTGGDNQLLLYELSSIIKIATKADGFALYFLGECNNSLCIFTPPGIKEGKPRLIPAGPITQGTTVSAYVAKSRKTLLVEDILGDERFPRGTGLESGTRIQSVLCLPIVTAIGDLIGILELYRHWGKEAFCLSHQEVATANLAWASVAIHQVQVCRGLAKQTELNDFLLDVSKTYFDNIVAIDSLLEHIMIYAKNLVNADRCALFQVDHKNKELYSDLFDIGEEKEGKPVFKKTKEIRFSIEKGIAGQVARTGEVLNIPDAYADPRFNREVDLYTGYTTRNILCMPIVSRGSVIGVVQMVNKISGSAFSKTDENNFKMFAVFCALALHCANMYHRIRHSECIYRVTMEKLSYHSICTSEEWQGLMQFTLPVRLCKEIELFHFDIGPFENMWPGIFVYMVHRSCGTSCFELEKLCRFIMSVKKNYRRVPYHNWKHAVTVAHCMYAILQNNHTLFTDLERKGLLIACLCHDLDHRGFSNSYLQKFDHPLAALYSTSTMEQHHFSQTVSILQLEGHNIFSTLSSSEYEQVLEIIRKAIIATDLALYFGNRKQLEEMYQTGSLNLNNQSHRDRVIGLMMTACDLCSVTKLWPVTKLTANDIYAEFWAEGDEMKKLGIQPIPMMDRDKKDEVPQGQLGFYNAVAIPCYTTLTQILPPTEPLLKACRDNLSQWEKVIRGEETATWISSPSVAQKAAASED

For CCOC(=O)c1c(-c2ccc(O)c3ncccc23)c(C)n2c1-c1cc(OC)c(OC)cc1CC2 [Compound A], the IC50 (PDE10A) was 0.03 µM, the IC50 (PDE3A) was over 10 µM and the “Insulin secretion, Fold-over-Control (FOC)” value [1] was 1.4.

CCOC(=O)c1c(-c2ccc(OC)cc2OC)c(C)n2c1-c1cc(OC)c(OC)cc1CC2 [B] showed an IC50 (PDE10A) of 0.0327 µM, an IC50 (PDE2) of over 10 µM and an IC50 (PDE3A) of over 10 µM. The IC50 (PDE5) was over 10 µM and the “Insulin secretion, Fold-over-Control (FOC)” value [1] was 1.44.

In the case of CCOC(=O)c1c(-c2ccc(OC)c(OC)c2)c(C)n2c1-c1cc(OC)c(OC)cc1CC2 [C], the IC50 (PDE10A) is reported as 0.0263 µM, the IC50 (PDE2) is reported as over 10 µM and the IC50 (PDE3A) is reported as over 10 µM. The IC50 (PDE4B) was over 10 µM, the IC50 (PDE5) was over 10 µM and the “Insulin secretion, Fold-over-Control (FOC)” value [1] was 1.48.
